Source: ChEMBL document CHEMBL5352385, “Marine natural products and their synthetic analogs as promising antibiofilm agents for antibiotics discovery and development” (Eur J Med Chem, 2022)
*1 amine or outer side, *2 acyl side, *3 side chain or, on linkers, in order; H or OH if unused. Where a SMILES comes first, the peptide text is derived from it. [ ]: non-standard residue; d: D form. ξ: configuration not given here. ξGly(tetradecyl) = CCCCCCCCCCCCCCC(N)C(=O)O; X1 = CCCCCCCCCCCCCC(N[*:1])C(=O)[*:2]

How the values were obtained:
Format in all cases: functional
Vibrio anguillarum = assay: Antibiofilm activity against Vibrio anguillarum at 300 ug/ml relative to control; settings: dose 300 µg/ml
Pseudomonas aeruginosa [1] = assay: Antibiofilm activity against Pseudomonas aeruginosa at 300 ug/ml relative to control; settings: dose 300 µg/ml
Bacillus subtilis [2] = assay: Antibiofilm activity against Bacillus subtilis at 300 ug/ml relative to control; settings: dose 300 µg/ml
Bacillus sp. = assay: Antibiofilm activity against Bacillus sp. 176 at 300 ug/ml relative to control; settings: dose 300 µg/ml
Acinetobacter baumannii [3] = assay: Antibiofilm activity against Acinetobacter baumannii ATCC 19606 assessed as reduction in biofilm formation incubated for 24 hrs by crystal violet staining based analysis
Acinetobacter baumannii [4] = assay: Antibiofilm activity against Acinetobacter baumannii ATCC […] assessed as reduction in biofilm formation incubated for 24 hrs by crystal violet staining based analysis
[5] = test system: Staphylococcus epidermidis; assay: Antibiofilm activity against Staphylococcus epidermidis
Pseudomonas aeruginosa [6] = assay: Antibiofilm activity against Pseudomonas aeruginosa PA01 at 128 ug/ml relative to control; settings: dose 128 µg/ml
Staphylococcus aureus [7] = assay: Antibiofilm activity against Staphylococcus aureus ATCC 6538 at 6.25 ug/ml relative to control; settings: dose 6.25 µg/ml
Candida albicans [8] = assay: Antibiofilm activity against Candida albicans assessed as reduction in biofilm formation at >200 ug/ml measured after 48 hrs by crystal violet staining based analysis relative to control; parameters: scale not given: the % may be the effect or the level left; settings: dose > 200 µg/ml
Streptococcus mutans [9] = assay: Antibiofilm activity against clinical isolates Streptococcus mutans assessed as inhibition of biofilm formation at 3.0 ug/ml relative to control; parameters: scale not given: the % may be the effect or the level left; settings: dose 3 µg/ml
Streptococcus mutans [10] = assay: Antibiofilm activity against Streptococcus mutans UA159 assessed as inhibition of biofilm formation at 3.0 ug/ml relative to control; parameters: scale not given: the % may be the effect or the level left; settings: dose 3 µg/ml
Pseudomonas aeruginosa [11] = assay: Antibiofilm activity against Pseudomonas aeruginosa at 100 ug/ml relative to control; settings: dose 100 µg/ml
Staphylococcus aureus [12] = assay: Antibiofilm activity against Staphylococcus aureus at 100 ug/ml relative to control; settings: dose 100 µg/ml
Staphylococcus aureus [13] = assay: Antibiofilm activity against methicillin-resistant Staphylococcus aureus 33591 assessed as reduction in biofilm formation at 50 ug/ml measured after 24 hrs by crystal violet staining based analysis relative to control; parameters: scale not given: the % may be the effect or the level left; settings: dose 50 µg/ml
Pseudomonas aeruginosa [14] = assay: Antibiofilm activity against Pseudomonas aeruginosa PA01 assessed as inhibition of biofilm formation at 800 ug/ml relative to control; parameters: scale not given: the % may be the effect or the level left; settings: dose 800 µg/ml
Escherichia coli = assay: Antibiofilm activity against Escherichia coli assessed as inhibition of biofilm formation
Pseudomonas aeruginosa [15] = assay: Antibiofilm activity against Pseudomonas aeruginosa assessed as inhibition of biofilm formation at 100 to 200 ug/ml relative to control; parameters: scale not given: the % may be the effect or the level left; settings: dose 100-200 µg/ml; at 100 to 200 µg/mL
Staphylococcus aureus [16] = assay: Antibiofilm activity against Staphylococcus aureus by crystal violet staining based analysis
Staphylococcus aureus [17] = assay: Antibiofilm activity against Staphylococcus aureus incubated for 3 hrs by XTT method
Staphylococcus aureus [18] = assay: Antibiofilm activity against Staphylococcus aureus ATCC 6538 at 12.5 ug/ml relative to control; settings: dose 12.5 µg/ml
Streptococcus mutans [19] = assay: Antibiofilm activity against Streptococcus mutans at 5 ug/ml relative to control; settings: dose 5 µg/ml
Candida albicans [20] = assay: Antibiofilm activity against Candida albicans assessed as reduction in biofilm formation at 100 ug/ml measured after 48 hrs by crystal violet staining based analysis relative to control; parameters: scale not given: the % may be the effect or the level left; settings: dose 100 µg/ml
Listeria monocytogenes = assay: Antibiofilm activity against Listeria monocytogenes ATCC 19111 at 256 ug/ml relative to control; settings: dose 256 µg/ml
[21] = test system: Staphylococcus epidermidis; assay: Antibiofilm activity against Staphylococcus epidermidis RP62A at 256 ug/ml relative to control; settings: dose 256 µg/ml
Serratia marcescens = assay: Antibiofilm activity against Serratia marcescens at 30 ug/ml relative to control; settings: dose 30 µg/ml
Staphylococcus aureus [22] = assay: Antibiofilm activity against Staphylococcus aureus ATCC 25923 at 8 to 16 ug/ml incubated for 24 hrs by crystal violet staining based analysis relative to control; settings: dose 8-16 µg/ml, at 8 to 16 µg/mL
Bacillus subtilis [23] = assay: Antibiofilm activity against Bacillus subtilis ATCC 6633 at 8 to 16 ug/ml incubated for 24 hrs by crystal violet staining based analysis relative to control; settings: dose 8-16 µg/ml, at 8 to 16 µg/mL
Staphylococcus aureus [24] = assay: Antibiofilm activity against Staphylococcus aureus B1 at 8 to 16 ug/ml incubated for 24 hrs by crystal violet staining based analysis relative to control; settings: dose 8-16 µg/ml, at 8 to 16 µg/mL
Enterococcus faecalis = assay: Antibiofilm activity against Enterococcus faecalis W1 at 8 to 16 ug/ml incubated for 24 hrs by crystal violet staining based analysis relative to control; settings: dose 8-16 µg/ml, at 8 to 16 µg/mL

Compound: CCCCCCCCCCCCCCC1NC(=O)C(C(C)CC)NC(=O)C(CC(C)C)NC(=O)C(CC(=O)OC)NC(=O)C(CC(C)C)NC(=O)C(CC(C)C)NC(=O)C(CC(C)C)NC(=O)C(CCC(=O)OC)NC1=O (centres undefined) (cyclo([ξGly(tetradecyl)]E(OMe)LLLD(OMe)LI); configuration not given here)
- Activity (Vibrio anguillarum): >50%
- Activity (Pseudomonas aeruginosa [1]): >50%
- Activity (Bacillus subtilis [2]): >50%
- Activity (Bacillus sp.): >50%

Compound: COc1cc(-c2ccccn2)nc(/C=N/O)c1S(C)(=O)=O
- MBIC (Acinetobacter baumannii [3]): 8 µg/mL
- MBIC (Acinetobacter baumannii [4]): 32 µg/mL

Compound: O=C1Nc2ccc(Br)cc2C1(c1c[nH]c2ccccc12)c1c[nH]c2ccccc12
- MBIC [5]: 5 µM
- Activity (Pseudomonas aeruginosa [6]): 49.32%

Compound: COC(=O)[C@@]12Oc3ccc(-c4ccc5c(c4O)C(=O)C4=C(O)C[C@H](C)[C@@H](O)[C@]4(C(=O)OC)O5)c(O)c3C(=O)C1=C(O)C[C@H](C)[C@H]2O
- Activity (Staphylococcus aureus [7]): 97%

Compound: C/C=C/CCCC(C)/C(O)=C1\C(=O)[C@H](C(C)O)N(C)C1=O (some centres undefined)
- Activity (Candida albicans [8]): 80%

Compound: CCCCCCCCCCCCCC1NC(=O)C(C(C)CC)NC(=O)C(CC(C)C)NC(=O)C(CC(=O)OC)NC(=O)C(CC(C)C)NC(=O)C(CC(C)C)NC(=O)C(CC(C)C)NC(=O)C(CCC(=O)OC)NC1=O (centres undefined) (cyclo([X1]E(OMe)LLLD(OMe)LI); configuration not given here)
- Activity (Vibrio anguillarum): >50%
- Activity (Pseudomonas aeruginosa [1]): >50%
- Activity (Bacillus subtilis [2]): >50%
- Activity (Bacillus sp.): >50%

Compound: C[C@H](CC[C@H](C)C(C)(C)C)[C@H]1CC[C@H]2C3C[C@H](OS(=O)(=O)[O-])[C@H]4C[C@H](OS(=O)(=O)[O-])[C@@H](OS(=O)(=O)[O-])C[C@]4(C)[C@H]3CC[C@]12C.[Na+].[Na+].[Na+] (some centres undefined)
- Activity (Streptococcus mutans [9]): 85.2%
- Activity (Streptococcus mutans [10]): 99.5%

Compound: CCCC/C=C\CCCCCCCCCCCC=O
- Activity (Pseudomonas aeruginosa [11]): 82.657%
- Activity (Staphylococcus aureus [12]): 78.973%

Compound: COc1cc(-c2ccccn2)nc(CO)c1SC
- Activity (Staphylococcus aureus [13]): >90%

Compound: NCCc1ccc(O)cc1 [TYRAMINE]
- Activity (Pseudomonas aeruginosa [14]): 28%

Compound: CCCCCCCCC1C=CC(=O)O1 (centres undefined)
- MBIC (Escherichia coli): 50 µg/mL
- Activity (Pseudomonas aeruginosa [15]): 100%

Compound: CCCCOC(=O)[C@]1(Cc2ccccc2)OC(=O)C(O)=C1c1ccccc1
- MBIC (Staphylococcus aureus [16]): 6.1 µg/mL
- MBIC (Staphylococcus aureus [17]): 97.7 µg/mL

Compound: Cc1cc(O)c2c(c1)C(=O)c1cc(O)cc(O)c1C2=O [EMODIN]
- Activity (Staphylococcus aureus [18]): >50%
- Activity (Streptococcus mutans [19]): 90%

Compound: C/C=C1\C(=O)/C(=C(/O)C(C)CCCCCC)C(=O)N1C (centres undefined) [PENICILLENOL B2]
- Activity (Candida albicans [20]): 80%

Compound: CC(C)C[C@@H]1NC(=O)[C@@H]2CCCN2C1=O
- Activity (Listeria monocytogenes): 86.9%
- Activity [21]: 82%
- Activity (Serratia marcescens): 53.5%

Compound: C=C1CC[C@H]2[C@@](C)(CC[C@H]3C(C)(C)[C@@H](OC(C)=O)CC[C@]23C)[C@@H]1Cc1c(O)cc(C)oc1=O
- Activity (Staphylococcus aureus [22]): 100%
- Activity (Bacillus subtilis [23]): 100%
- Activity (Staphylococcus aureus [24]): 100%
- Activity (Enterococcus faecalis): 100%
